# Results taken from patent US10555957B2, “Methods and compositions for enriching DHA levels in the brain” (The Board of Trustees of the University of Illinois, a body …, priority 2017, dated 2020).
# Where “and” joins values, the source holds several entries; their conditions need not be identical. Equal values may be shown once.
# Columns and labels:
# [1] = Feeding study, daily gavage for 30 days: fatty acid and DHA lipid species of plasma, liver, heart, adipose tissue and brain regions
# normal adult mice = assay: Morris water maze test; type: in vivo, C57BL/6 mice; conditions: for latency time to the previous platform area / time in the target quadrant: n=5; for finding the previous platform area, faster than the control and free DHA groups / time spent in the target quadrant versus control and free DHA groups: study 1, probe trial
# [2] = Intestinal absorption of micellar DHA into lymph (HDL, chylomicrons; PC, TAG) in rats with lymph duct cannulation; type: in vivo, Sprague-Dawley rats
# Method: Two types of micelle, one containing the DHA as free fatty acid, and the other containing the DHA as LPC, were prepared by sonication. All components except taurocholate were added as chloroform solutions to a glass tube and the solvent was evaporated under nitrogen. Then 10 ml of sodium taurocholate solution (12 mM, in PBS, pH 7.4) was added to the tube and the lipids dispersed by vortexing for 1 min. The mixture was then sonicated in a Sonics Vibro Cell sonicator at 40% setting for four 30 sec pulses at 1 min intervals, while the tube was immersed in ice. The resulting micelle were optically clear, and were used immediately for infusion into rats.
# Thoracic lymph duct cannulation was carried out as described with slight modifications. The rats were fasted overnight before the procedure. Under analgesics and isoflurane anesthesia, the abdomen was opened, the dorsal parietal peritoneum was incised, and the aorta was dissected free from the surrounding muscle and thoracic duct. The duct was cannulated (3-5 mm) with a heparin (500 units/ml) and saline-rinsed, pre-cut catheter (16 gauge, BD Angiocath). Following insertion, the catheter was connected to ‘U” shaped secured Silastic Laboratory tubing to prevent displacement or dislodgement. Micelle (10 ml) were infused at a rate of 3 ml/h into the duodenum (Harvard pump) through a second catheter positioned into the duodenum, followed by the infusion of 10 ml PBS, at 3 ml/h. The abdomen was closed and the lymph was collected for 6 h, in 30 min fractions into tubes containing 1.0 ml of PBS, while the animal was under anesthesia. The body temperature of the animal was maintained at 37° C. with the help of a heating pad.
# The volume of each lymph fraction was made up to 2.0 ml with PBS, containing 1 mM EDTA (final). The density of lymph fraction was raised to 1.063 g/ml by the addition of KBr and centrifuged at 100,000×g for 4 h at 4° C. in the TLA 100.3 rotor of the Beckman TL-100 ultracentrifuge. One ml of the bottom layer was aspirated to a new tube (HDL) and the remaining 1.0 ml was taken as the chylomicrons (CM).
# Extraction and Analysis of Lipids. The total lipids of HDL and CM were extracted by the Bligh and Dyer method after spiking the samples with 25 μg each of 15:0-15:0-15:0 TAG and 17:0-17:0 PC. The lipid extract was applied to an aminopropyl silica cartridge (100 mg) in 1 ml of chloroform under gravity, and the cartridge was washed with chloroform (2×1.0 ml) to elute the TAG and cholesteryl esters. […] The PC was then eluted with 2.0 ml of chloroform: methanol (3:2, v/v)).
# The temperature program was as follows: 165° C. for 1 min, raised to 210° C. at the rate of 6.5° C./min, followed by raising to 240° C. at the rate of 3.5° C./min, and maintaining at 240° C. for 10 min. The total analysis time was 26.5 min. The injection temperature was 250° C., ion source temperature 230° C. and the interface temperature was 250° C. […] The identification of individual FAME was done by comparison of retention times with the standard mixture (PUFA2, Sigma) as well as by the characteristic fragment ions (m/z 74 for saturated, m/z 55 for monounsaturated, m/z 67 for diunsaturated, and m/z 79 for polyunsaturated).
# BDNF [3] = assay: BDNF concentration in the brain regions by ELISA; type: in vivo, C57BL/6 mice; conditions: 1 mg DHA/day, 30 days, n=6
# Excerpt: Therefore, we determined BDNF concentration in the brain regions by ELISA to complement our MWM data.
# [4] = cited from earlier work
# BDNF [5] = assay: BDNF levels in the brain after feeding free EPA or LPC-EPA; type: in vivo, Mice; conditions: 1 mg EPA/day for 15 days
# Method: The compounds were dispersed in corn oil (80 μl) and fed daily by gavge. Results are shown in e.g. […]. […] See e.g. FIGS. 23A-23C.
# [6] = Feeding free EPA or LPC-EPA for 15 days: omega 3 fatty acids and arachidonic acid in tissues; type: in vivo, Mice; conditions: oral; for all three n-3 fatty acids in the liver / decrease in liver arachidonic acid level / decrease of brain content of arachidonic acid: 15 days; for increase of brain DHA content: corn oil gavage
# Method: Mice were fed oral preparations of free EPA or LPC-EPA at about 1 mg/kg per day for 15 days. The compounds were dispersed in corn oil (80 μl) and fed daily by gavge.
# [7] = as above; type: in vivo, Mice; conditions: 1 mg EPA/day for 15 days
# [8] = Isomerization / isomer stability of LPC-DHA; type: physicochemical
# Method: LPC-DHA was prepared by the hydrolysis of 16:0-22:6 PC by immobilized Mucor lipase (Lipozyme) by a modification of the published procedure. Briefly, 100 mg of Lipozyme was added to 50 mg of 16:0-22:6 PC dissolved in 1 ml of 95:5 (v/v) ethanol: water. The reaction mixture was incubated at 37° C. for 72 h under nitrogen with shaking. The reaction mixture was dried under nitrogen and extracted with 4 ml of ethanol: water: hexane (2:1:1, by vol) mixture to remove the free fatty acid. The lower layer was concentrated under nitrogen and extracted by Bligh and Dyer procedure. The final sample contained 95% LPC, the rest being unhydrolyzed PC, as determined by lipid phosphorus estimation after TLC separation. Although this enzyme produces sn-2 22:6 LPC, this isomer is unstable, and is non-enzymatically isomerized to sn-1-22:6 LPC [24,25].
# sn-2 DHA LPC was prepared by the hydrolysis of 16:0-22:6 PC with immobilized Mucor lipase (Lipozyme) by a modification of the published procedure^44. […] The preparation contained >95% of lipid phosphorus in LPC DHA and the rest in unhydrolyzed PC, as determined by TLC, and was used for feeding studies without further purification. […] More than 95% of the 2-acyl LPC DHA was converted to 1-acyl isomer under these conditions, as determined by LC/MS.
# [9] = ref [32]; cited from earlier work
# [10] = about 1 mg/kg per day for 15 days
compound,measurement,setting,value
"CC/C=C\C/C=C\C/C=C\C/C=C\C/C=C\C/C=C\CCC(=O)O [free DHA, (4Z,7Z,10Z,13Z,16Z,19Z)-docosa-4,7,10,13,16,19-hexaenoic acid, reference compound]",DHA concentration and 22:6/20:4 ratio in adipose tissue,"[1]; 1 mg DHA/day, 30 days",increase
same,20:4-22:6 PC in the hippocampus,[1]; LC/MS/MS,increased
same,DHA-PC species in plasma,[1]; LC/MS/MS,not
same,major species of DHA-PE in the hippocampus,[1]; LC/MS/MS,not
same,plasma TAG species containing DHA,[1]; LC/MS/MS,increased more
same,LPC DHA concentration of plasma,"[1]; LC/MS/MS, 1 mg DHA/day, 30 days",not
same,22:6/20:4 ratio in brain regions,[1]; all regions of brain,no significant increase
same,increase of brain DHA levels in normal adult mice,"[1]; equal amount of DHA, 30 days",did not appreciably increase
same,latency time to the previous platform area,"normal adult mice; second study, probe trial",47.1 s
same,time in the target quadrant,"normal adult mice; second study, probe trial",12 s
same,percentage of 22:6/22:6/18:1 TAG species,"[2]; HDL and CM, free DHA compared to LPC-DHA",significantly higher
same,TAG species containing DHA at all 3 positions,[2]; free DHA compared to LPC-DHA absorption,significantly higher
same,significant amount of free DHA in the lymph after infusion,[2],not observed
same,BDNF content in regions of the brain,BDNF [3],no change
docosahexaenoic acid-lysophosphatidylcholine [LPC-DHA],brain uptake of injected compound compared with free DHA,[4]; kinetic studies [7],higher
same,efficiency of passing through the BBB compared with free fatty acid,"[4]; previous studies in animals [5,6]",about 10 times
same,increase of DHA content in most regions of the brain (nmol of DHA per mg wet weight),"[1]; 1 mg DHA/day, 30 days",2-3 fold
same,percentage of DHA in plasma,"[1]; % of total fatty acids, 1 mg DHA/day, 30 days",greater
same,"decrease in the latency to previous platform area, compared to the control or free DHA treated animals",normal adult mice; probe trial,7 fold
same,"increase in the time spent in the target quadrant, compared to the control or free DHA treated animals",normal adult mice; probe trial,2 fold
same,percentage of 16:0/22:6 PC,"[2]; HDL and CM, LPC-DHA compared to free DHA absorption",significantly lower
same,significant amount of free DHA in the lymph after infusion,[2],not observed
same,"increase in amount of DHA recovered in lymph HDL, compared to free DHA absorption",[2]; lymph HDL,> 2 fold
same,hydrolysis in the intestinal lumen (intestinal contents after the 6 h lymph collection),[2]; some experiments,no hydrolysis of LPC in the lumen
same,"percent of whole lymph DHA appearing in PC, LPC compared to free fatty acid",[2]; whole lymph,5 times
same,percent of whole lymph DHA appearing in PC,"[2]; whole lymph, mean±SEM",18.72±2.88% and 18%
eicosapenteanoic acid-lysophosphatidylcholine [LPC-EPA],BDNF levels in the brain,BDNF [5],increased
same,all three n-3 fatty acids in the liver,[6],increased
same,decrease in liver arachidonic acid level,[6],~60%
same,decrease of brain content of arachidonic acid,[6],~40%
same,increase of total amount of brain Omega 3 fatty acids (EPA+DPA+DHA),[6]; [10],about 90%
same,increase of brain DHA content,[6]; [10],60%
same,"arachidonic acid in the brain, LPC-EPA versus free EPA",[7],decreased it more
same,concentration of arachidonic acid in all tissues,[7],decreased
same,enriching the total omega 3 fatty acids in the heart,[7],equally efficient
"CC/C=C\C/C=C\C/C=C\C/C=C\C/C=C\CCCC(=O)O [free EPA, eicosapentaenoic acid]",all three n-3 fatty acids in the liver,[6],increased
same,decrease in liver arachidonic acid level,[6],~60%
same,decrease of brain content of arachidonic acid,[6],~12%
same,increase of brain EPA (in words),[6]; [10],to a small extent
same,increase of total amount of brain Omega 3 fatty acids (EPA+DPA+DHA),[6]; [10],no change
same,increase of brain DHA content,[6]; [10],no effect
same,enriching the total omega 3 fatty acids in the heart,[7],equally efficient
same,omega 3 fatty acid content of adipose tissue,[7],enriched more
same,omega 3 fatty acids in erythrocytes,[7],increased
CC/C=C\C/C=C\C/C=C\C/C=C\C/C=C\C/C=C\CCC(=O)OC[C@@H](O)COP(=O)([O-])OCC[N+](C)(C)C [sn-1 DHA LPC],"18:1-22:6 PC in plasma, between the two LPC isomers","[1]; mouse, in vivo",greater increase
same,22:6/20:4 ratio in liver,"[1]; mouse, in vivo",significantly increased
same,DHA concentration in liver,"[1]; mouse, in vivo",did not reach statistical significance
same,enrichment of all the brain regions with DHA,"[1]; mouse, in vivo",significantly enriched
same,"increase in plasma LPC DHA, sn-1 DHA LPC compared to sn-2 DHA LPC","[1]; mouse, in vivo",28%
same,increase of DHA content (nmol/mg) in striatum and amygdala,"[1]; mouse, in vivo",did not reach statistical significance
same,"acquisition phase, learning the location of the platform by Day 5",normal adult mice; second study,faster
same,latency time to the previous platform area,"normal adult mice; second study, probe trial",12.7 s
same,time in the target quadrant,"normal adult mice; second study, probe trial",29.9 s
same,"finding the previous platform area, faster than the control and free DHA groups",normal adult mice,7 times
same,time spent in the target quadrant versus control and free DHA groups,normal adult mice,twice as long
same,BDNF content in regions of the brain,BDNF [3],significantly increased
CC/C=C\C/C=C\C/C=C\C/C=C\C/C=C\C/C=C\CCC(=O)O[C@H](CO)COP(=O)([O-])OCC[N+](C)(C)C [sn-2 DHA LPC],22:6/20:4 ratio in liver,"[1]; 1 mg DHA/day, 30 days",increase
same,DHA concentration in liver,"[1]; 1 mg DHA/day, 30 days",significantly increased
same,concentration of 20:4 in liver,"[1]; 1 mg DHA/day, 30 days",parallel decrease
same,enrichment of all the brain regions with DHA,"[1]; cortex, cerebellum, hippocampus, striatum, amygdala, % of total fatty acids",significantly enriched
same,"finding the previous platform area, faster than the control and free DHA groups",normal adult mice,7 times
same,time spent in the target quadrant versus control and free DHA groups,normal adult mice,twice as long
same,"isomerization to the sn-1 isomer, compared with sn-2 16:0 LPC","[8]; physiological pH and temperature, unpublished results",much slower
same,LPC remaining as sn-2 isomer,"[8]; stored in chloroform: methanol (9:1) at −20° C., at least 4 weeks",Over 90%
same,BDNF content in regions of the brain,BDNF [3],significantly increased
CCCCCCCCCCCCCCCC(=O)OCC(O)COP(=O)([O-])OCC[N+](C)(C)C (stereo not drawn) [16:0 LPC],recovery of 16:0 in lymph PC after infusion of 16:0 LPC,[9],25-30%
